# Data published in patent US20260001928A1 (CORTERIA PHARMACEUTICALS, priority 2022, published 2026).
# *1 amine or outer side, *2 acyl side, *3 side chain or, on linkers, in order; H or OH if unused. Where a SMILES comes first, the peptide text is derived from it. Side-chain parts run from the residue outwards. The star is where a group is joined. C18 diacid = O=C(O)CCCCCCCCCCCCCCCCC(=O)*; γGlu = O=C(O)[C@H](CCC(=O)[*:2])N[*:1]; AEEA = NCCOCCOCC(=O)O
# Tests used:
# [1] = In vivo metabolite identification on rat plasma samples after SC administration; conditions: rat plasma after SC administration at 1 mg/kg
# Description: Software aided in vitro metabolite identification on SCts stability samples was performed using either Metabolite Pilot (Sciex) or Biopharma Finder (Thermo). In addition, metabolite identification using Metabolite Pilot was performed on plasma samples of Comp Y following SC administration to rat at 1 mg/kg.
# [2] = In vitro subcutaneous tissue supernatant (SCts) stability and metabolite identification, rat; type: in vitro ADME; conditions: in vitro soft spot identification, rat SCts
# [3] = subcutaneous tissue supernatant (SCts); conditions: male Sprague Dawley rats, 37° C., up to 2 hours
# Dog PLM = conditions: 37° C., up to 2 hours
# Human PLM = conditions: 37° C., up to 2 hours
# Rat PLM = conditions: male Sprague Dawley rats, 37° C., up to 2 hours
"major metabolic soft spot, in vivo [1]","major metabolic soft spot, in vitro [2]",not cleaved [3],percent remaining (Dog PLM),not cleaved (Human PLM),not cleaved (Rat PLM),Compound
N-terminus,N-terminus,–,–,–,–,"CC[C@H](C)[C@H](N)C(=O)N[C@H](C(=O)N[C@@H](CC(C)C)C(=O)N[C@@H](CO)C(=O)N[C@@H](CC(C)C)C(=O)N[C@@H](CC(=O)O)C(=O)N[C@H](C(=O)N1CCC[C@H]1C(=O)N[C@H](C(=O)N[C@@H](CCCCN)C(=O)N[C@@H](CC(C)C)C(=O)N[C@@H](CCCCNC(=O)COCCOCCNC(=O)COCCOCCNC(=O)CC[C@H](NC(=O)CCCCCCCCCCCCCCCCC(=O)O)C(=O)O)C(=O)N[C@@H](CCCCN)C(=O)N[C@H](C(=O)N[C@@H](CC(C)C)C(=O)N[C@@H](CC(C)C)C(=O)N[C@@H](CCC(=O)O)C(=O)N[C@@H](CCC(N)=O)C(=O)N[C@@H](CCC(=O)O)C(=O)N[C@@H](CCCCN)C(=O)N[C@@H](CCC(N)=O)C(=O)N[C@@H](CCCCN)C(=O)N[C@@H](CCCCN)C(=O)N[C@@H](CCC(N)=O)C(=O)N[C@@H](CCCNC(=N)N)C(=O)N[C@@H](CCC(=O)O)C(=O)N[C@@H](CCC(N)=O)C(=O)N[C@@H](C)C(=O)N[C@@H](CCC(=O)O)C(=O)N[C@H](C(=O)N[C@@H](CC(N)=O)C(=O)N[C@@H](CCCCN)C(=O)N[C@@H](CCC(N)=O)C(=O)N[C@H](C(=O)N[C@@H](CC(C)C)C(=O)N[C@@H](C)C(=O)N[C@@H](CCC(N)=O)C(=O)N[C@H](C(N)=O)C(C)C)[C@@H](C)CC)[C@@H](C)O)[C@@H](C)CC)[C@@H](C)CC)C(C)C)C(C)C [SEQ ID No. 149, reference compound] (H-IVLSLDVPIKLK([AEEA-AEEA-γGlu-C18 diacid])KILLEQEKQKKQREQAETNKQILAQV-NH2)"
–,–,95% remaining at 2 h,–,–,–,Ac-IVLSLDvPIKLK*KILLEQEKQKAibQREQAETNAibQILAQV-NH2
–,–,–,102% remaining at 2 hours,99% remaining at 2 hours,109% remaining at 2 hours,NMeIVLSLDvPIKLK*KILLEQEKQKEQREQAETNAibQILAQV-NH2 [218]
–,–,–,99% remaining at 2 hours,100% remaining at 2 hours,106% remaining at 2 hours,NMeIVLSLDvPIKLK*KILLEQEKQKEQREQAETNAibQILAQV-NH2 [233]
